Test results as given in patent publication US5250572A (priority 1992, dated 1993).

Tests used:
5HT1C receptor = target: T1, 5HT1C receptor (Bos taurus, UniProt A0AAA9SBU1); experiment: Inhibition of 3H-mesulergine binding to 5HT1C receptor; details: read-out: Inhibition of Radioligand Binding to 5HT Receptor, 1C (IC50); bovine choroid plexus membranes, 2 nM 3H-mesulergine, 25° C., 30 min, pH 7.4; mean of three experiments
T1 sequence (A0AAA9SBU1 33-457): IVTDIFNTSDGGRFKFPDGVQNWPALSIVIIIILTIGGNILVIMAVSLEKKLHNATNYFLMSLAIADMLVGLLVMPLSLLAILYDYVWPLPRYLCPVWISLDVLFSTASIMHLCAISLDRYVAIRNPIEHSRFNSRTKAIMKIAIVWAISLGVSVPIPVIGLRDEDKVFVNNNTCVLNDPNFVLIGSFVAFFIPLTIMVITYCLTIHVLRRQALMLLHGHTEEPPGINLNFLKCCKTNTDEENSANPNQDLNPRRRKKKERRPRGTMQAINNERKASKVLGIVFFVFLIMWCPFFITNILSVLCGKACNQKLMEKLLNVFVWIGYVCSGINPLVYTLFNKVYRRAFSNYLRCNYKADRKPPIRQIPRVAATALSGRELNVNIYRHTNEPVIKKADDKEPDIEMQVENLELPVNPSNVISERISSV
Experimental: (§1) This general procedure is set forth by Wong et al., Life Sciences, 46, 231 (1990).
(§2) Bovine choroid plexus and brain tissues from male Sprague-Dawley rats was homogenized in 9 volumes of 0.32 M sucrose. After centrifugation at 1000×g for 10 minutes and then at 17,000×g for 20 minutes, a crude synaptosomal fraction was sedimented. The pellet was suspended in 100 volumes of 50 mM Tris-HCI, pH 7.4, incubated at 37° C. for 10 minutes, and centrifuged at 50,000×g for 10 minutes. The process was repeated, and the final pellet of membrane was suspended in ice-chilled 50 mM Tris-HCI buffer, pH 7.4.
(§3) Binding of ^3 H-mesulergine to the 5HT1C receptor and other serotonergic ^3 H-ligands to subtypes of 5HT receptors (^3 H-8-hydroxy-2-(di-n-propylamino)tetralin to 5HT1A; ^3 H-serotonin to 5HT1B and 5HT1D; ^3 H-ketanserin to 5HT2; and ^3 H-1-methyl-N-(8-methyl-8-azabicyclo[3.2.1]oct-3-yl)-1H-indazaole-3-carboxamide to 5HT3 receptors) was performed according to the method described in the above reference. Briefly, membranes isolated from bovine choroid plexus (for 5HT1C) or rat brain were incubated at 25° C. for 30 minutes in 2 ml of 50 mM Tris-HCl, pH 7.4; 10 mM pargyline, 0.6 mM ascorbic acid; 5 mM CaCl2; and 2 nM ^3 H-mesulergine or other tritiated ligand. […] Radioactivity was measured with a liquid scintillation spectrometer. […]

[1] = Toxicity and therapeutic index (statements in words)
[2] = tested on: metabolism of concurrently administered drugs such as barbiturates or tricyclic antidepressants
5HT1A = target: T2, 5HT1A (Rattus norvegicus, UniProt P19327); experiment: Inhibition of 3H-8-hydroxy-2-(di-n-propylamino)tetralin binding to 5HT1A receptor; design: species or system male Sprague-Dawley); details: rat brain membranes, 25° C., 30 min, pH 7.4
T2 construct: brain tissues from male Sprague-Dawley rats was homogenized; from tissue; host or cells: brain of male Sprague-Dawley rats, crude synaptosomal membranes
T2 sequence (P19327 1-422): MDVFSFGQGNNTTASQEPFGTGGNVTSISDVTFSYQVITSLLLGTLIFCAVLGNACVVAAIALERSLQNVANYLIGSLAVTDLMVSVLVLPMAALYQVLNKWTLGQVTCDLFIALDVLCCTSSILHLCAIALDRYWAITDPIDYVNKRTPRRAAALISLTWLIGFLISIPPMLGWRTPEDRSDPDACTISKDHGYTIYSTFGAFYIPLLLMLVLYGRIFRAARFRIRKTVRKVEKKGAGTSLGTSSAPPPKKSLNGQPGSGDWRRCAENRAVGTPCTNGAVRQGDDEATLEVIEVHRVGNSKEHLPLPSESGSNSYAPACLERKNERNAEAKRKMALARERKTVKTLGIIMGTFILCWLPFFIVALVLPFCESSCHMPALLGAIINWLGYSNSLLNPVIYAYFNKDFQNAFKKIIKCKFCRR
Experimental: as §1, §2, §3

5HT3 receptors = target: T3, 5HT3 receptors (Rattus norvegicus, UniProt P35563); experiment: Inhibition of 3H-1-methyl-N-(8-methyl-8-azabicyclo[3.2.1]oct-3-yl)-1H-indazaole-3-carboxamide binding to 5HT3 receptors; design: species or system male Sprague-Dawley); details: rat brain membranes, 25° C., 30 min, pH 7.4
T3 construct: brain tissues from male Sprague-Dawley rats was homogenized; from tissue; host or cells: brain of male Sprague-Dawley rats, crude synaptosomal membranes
T3 sequence (P35563 24-483): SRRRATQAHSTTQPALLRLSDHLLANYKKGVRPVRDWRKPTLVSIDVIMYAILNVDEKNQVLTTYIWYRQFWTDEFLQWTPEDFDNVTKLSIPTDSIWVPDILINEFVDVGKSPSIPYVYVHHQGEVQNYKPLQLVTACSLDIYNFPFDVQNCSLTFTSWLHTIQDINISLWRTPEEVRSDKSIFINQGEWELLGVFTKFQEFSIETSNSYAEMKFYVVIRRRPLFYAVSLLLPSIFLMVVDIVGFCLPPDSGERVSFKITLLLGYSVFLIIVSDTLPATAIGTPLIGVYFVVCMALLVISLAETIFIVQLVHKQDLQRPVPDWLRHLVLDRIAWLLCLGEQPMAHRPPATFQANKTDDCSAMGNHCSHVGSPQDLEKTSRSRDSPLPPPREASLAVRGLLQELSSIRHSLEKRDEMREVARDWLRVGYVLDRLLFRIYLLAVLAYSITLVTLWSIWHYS
Experimental: as §1, §2, §3

5HT1D = experiment: Inhibition of 3H-serotonin binding to 5HT1D receptor; design: species or system male Sprague-Dawley); details: read-out: Inhibition of Radioligand Binding to 5HT Receptor, 1D (IC50), rat brain membranes, 25° C., 30 min, pH 7.4
Experimental: as §1, §2, §3

5HT1B = target: T4, 5HT1B (Rattus norvegicus, UniProt P28564); experiment: Inhibition of 3H-serotonin binding to 5HT1B receptor; design: species or system male Sprague-Dawley); details: rat brain membranes, 25° C., 30 min, pH 7.4
T4 construct: brain tissues from male Sprague-Dawley rats was homogenized; from tissue; host or cells: brain of male Sprague-Dawley rats, crude synaptosomal membranes
T4 sequence (P28564 whole entry): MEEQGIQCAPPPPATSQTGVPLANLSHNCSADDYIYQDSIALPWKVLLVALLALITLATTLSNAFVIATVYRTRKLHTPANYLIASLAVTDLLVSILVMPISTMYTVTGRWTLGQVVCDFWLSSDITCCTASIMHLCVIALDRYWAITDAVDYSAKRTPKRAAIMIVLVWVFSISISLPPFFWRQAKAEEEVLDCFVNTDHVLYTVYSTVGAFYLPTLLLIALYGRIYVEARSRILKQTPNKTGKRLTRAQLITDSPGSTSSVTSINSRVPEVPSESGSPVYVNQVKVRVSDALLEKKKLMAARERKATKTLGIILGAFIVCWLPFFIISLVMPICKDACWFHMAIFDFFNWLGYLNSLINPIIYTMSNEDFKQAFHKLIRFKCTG
Experimental: as §1, §2, §3

serotonin uptake = details: words, cited from earlier work

Compound: NCC[C@@H](Oc1ccc(C(F)(F)F)cc1)c1ccccc1 [(R)-Norfluoxetine]
- IC50 (5HT1C receptor): 0.47 µM
- toxicity [1]: relatively non-toxic
- effect on metabolism of concurrently administered drugs [2]: little effect on metabolism of concurrently administered drugs
- IC50 (5HT1A): 22 µM
- IC50 (5HT3 receptors): 12 µM
- IC50 (5HT1D): 101 µM
- IC50 (5HT1B): 24 µM

Compound: NCCC(Oc1ccc(C(F)(F)F)cc1)c1ccccc1 (racemic) [Norfluoxetine, 3-(4-trifluoromethylphenoxy)-3-phenylpropylamine]
- serotonin / monoamine uptake blockade (serotonin uptake; background, known from earlier patents): block monoamine uptake, especially serotonin

Compound: NCC[C@H](Oc1ccc(C(F)(F)F)cc1)c1ccccc1 [(S)-norfluoxetine]
- activity as serotonin uptake inhibitor (serotonin uptake; relative to (R)-antipode, from copending application Ser. No. 07/486,478): substantially more active than its (R)-antipode
